Article PMC12627933, “A First-In-Human Study of the SUMOylation Inhibitor Subasumstat in Patients with Advanced/Metastatic Solid Tumors or Relapsed/Refractory Hematologic Malignancies” (Cancer Research Communications, 2025)
Read-outs that look alike come from different tables or passages of the source.

How the values were obtained:
[1] = system: MSS colorectal cancer and non-squamous NSCLC; design: method as in ref 18 = [18]; 18. Goel S , Ulahannan SV , Olszanski AJ , LoRusso P , Sanborn RE , Sharma S , . A phase 1b, multicenter, dose-escalation study of subasumstat (TAK-981) in combination with pembrolizumab in patients; details: in combination with pembrolizumab, cited from earlier work
[2] = system: advanced/metastatic solid tumors and relapsed/refractory hematologic malignancies; experiment: Clinical activity (RECIST v1.1 / Lugano criteria); format: in vivo, human; details: for DCR: 95% CI; for Patients with best response of SD: 90 mg twice weekly
Method: Disease response and progression were assessed for up to 48 months using CT and/or MRI scans with intravenous contrast and ^18fluorodeoxyglucose-PET imaging according to RECIST v1.1 criteria for solid tumors or Lugano criteria for lymphoma response ([21]).
It was anticipated that approximately 70 DLT-evaluable patients would be enrolled for dose escalation. The safety analysis set included all patients who received at least one dose, even if incomplete, of subasumstat. The tumor response–evaluable set included patients who received at least one dose of subasumstat, had sites of measurable disease at baseline and one post-baseline disease assessment, or discontinued treatment because of symptomatic deterioration or death prior to post-baseline evaluation. The overall response rate (ORR) was defined as the proportion of patients who achieved complete response and partial response (PR) during the study. The disease control rate (DCR) was defined as the proportion of patients who achieved […] as per RECIST v1.1 for solid tumors or Lugano classification for lymphomas. Both ORR and DCR were estimated with two-sided 95% exact binomial confidence intervals (CI). Progression-free survival was summarized descriptively using the Kaplan–Meier method.

[3] = system: tumor microenvironment (TME); experiment: Tumor microenvironment in paired tumor biopsies (multiplex immunofluorescence, PD-L1 22C3 IHC CPS); format: in vivo, human
Method: (§1) Blood samples for subasumstat–SUMO adduct formation and SUMO2/3 inhibition assessments were collected before dose and at 1, 4, and 8 hours after the infusion on C1D1 and C1D8. Blood samples for additional biomarker analyses were collected before dose on C1D1 and C1D8 and at 4, 8, and 24 hours after infusion on C1D1 and C1D8. Skin biopsies (used as surrogate tissue for solid tumors) were collected at screening and on C1D8 at 2 hours (±30 minutes) after end of infusion, and tumor biopsies were collected at screening and cycle 2 day 8 (C2D8; +7 days; whenever possible). In blood samples, a custom flow cytometry assay was utilized for detecting target engagement and SUMOylated protein levels in lymphocytes (including T-, B-, and NK-cell subsets). The assay included a PE-conjugated antibody specifically recognizing the SUMO–subasumstat adduct (MIL-113, anti–cysteinyl-TAK-981, Epitomics; refs. [14], [15], [22]) and an AF488-conjugated antibody recognizing SUMO2/3 conjugates (MBL International, cat. #M114-3, RRID: AB_592769). Peripheral blood cells were lysed/fixed, permeabilized (BD Biosciences), and stained with MIL-113 and M114-3 and with antibodies against CD45, CD3, CD19, CD16/CD56, and CD14. IHC assays for SUMO–subasumstat adduct and SUMO2/3 inhibition in skin biopsies and tumors were performed using MIL-113 and M114-3 antibodies. Activation of the IFNI pathway was assessed in peripheral blood by analysis of gene expression data (PanCancer IO 360 panel by NanoString for phase I and whole-transcriptome RNA sequencing data for phase II). Type I IFN gene signature was computed using geometric mean of the following genes: CCL2, CXCL10, DDX58, IRF7, ISG15, STAT1, and STAT2. These seven IFNI-regulated genes were selected prior to the trial, based on in vitro studies of the effect of subasumstat on human blood from 10 healthy donors analyzed on the NanoString PanCancer IO 360 panel. Plasma chemokines and cytokines were measured using the MesoScale Discovery platform (pro-inflammatory and chemokine panels, BioAgilytix). For assessment of NK- and T-cell activation, cells were suspended in buffer and incubated with the following monoclonal antibodies: APC-H7 mouse anti–human CD45 (BD Biosciences, cat. #560274), APC mouse anti–human CD69 (BD Biosciences, cat. #555533), BV421 mouse anti–human CD56 (BD Biosciences, cat. #562751), mouse anti–human CD16 PerCP-Cy5.5 (BD Biosciences, cat. #338440), BV510 mouse anti–human CD4 (BD Biosciences, cat. #563094), BV605 mouse anti–human CD8 (BD Biosciences, cat. #564116), and Alexa Fluor 700 anti–mouse CD3 antibody (BioLegend, cat. #100215), prior to assessment by flow cytometry using the BD Scientific FACSCanto flow cytometer (RRID: SCR_018055). Tumor PD-L1 expression level was assessed in paired tumor biopsies using the 22C3 PD-L1 IHC assay; combined positive score (CPS) was calculated for baseline and on-treatment tumor samples. The immune landscape in the tumor microenvironment (TME) was assessed using an integrated RNAscope and 27-marker MultiOmyx immunofluorescence panel.

[4] = system: tumor microenvironment (TME); design: method as in PMID 37389981; details: intratumor microdosing; cited from earlier work
[5] = Pharmacokinetics after 1-hour intravenous infusion (non-compartmental); format: in vivo, human; details: for half-life: across all dose levels, read-out: Terminal disposition phase half-life
Method: Subasumstat PK were evaluated after the first dose on C1D1 and cycle 1 day 8 (C1D8). The parameters included maximum observed plasma concentration (Cmax), time to first occurrence of Cmax, area under the plasma concentration–time curve from time 0 to the last measurable concentration (AUC0–t) or from time 0 extrapolated to time infinity (AUC0–∞), terminal disposition phase half-life, total clearance, and volume of distribution at steady state. PK parameters were estimated from concentration–time profiles for the PK analysis set, using non-compartmental methods, with Phoenix WinNonlin (RRID: SCR_024504).

IFNI pathway = IFNI pathway activation: IFNI gene signature in peripheral blood and plasma CXCL-10 (IP-10); format: in vivo, human
Method: as §1, with “IHC assays for SUMO–subasumstat adduct and SUMO2/3 inhibition in skin biopsies and tumors were performed using MIL-113 and M114-3 antibodies.” left out, “Type I IFN gene signature was computed using geometric mean of the following genes: CCL2, CXCL10, DDX58, IRF7, ISG15, STAT1, and STAT2.” left out, “For assessment of NK- and T-cell activation, cells were suspended in buffer and incubated with the following monoclonal antibodies: APC-H7 mouse anti–human CD45 (BD Biosciences, cat. #560274), APC mouse anti–human CD69 (BD Biosciences, cat. #555533), BV421 mouse anti–human CD56 (BD Biosciences, cat. #562751), mouse anti–human CD16 PerCP-Cy5.5 (BD Biosciences, cat. #338440), BV510 mouse anti–human CD4 (BD Biosciences, cat. #563094), BV605 mouse anti–human CD8 (BD Biosciences, cat. #564116), and Alexa Fluor 700 anti–mouse CD3 antibody (BioLegend, cat. #100215), prior to assessment by flow cytometry using the BD Scientific FACSCanto flow cytometer (RRID: SCR_018055).” left out

[6] = cited from earlier work
[7] = phase II NSCLC expansion cohort
[8] = phase II cervical cancer expansion cohort
[9] = cervical cancer and melanoma biopsies

## Cc1sc(C(=O)c2cncnc2N[C@@H]2C[C@H](COS(N)(=O)=O)[C@@H](O)C2)cc1[C@@H]1NCCc2ccc(Cl)cc21 [subasumstat]
[1]; MSS colorectal cancer dose-expansion cohort
  Antitumor activity: no activity was observed
[1]; relapsed/refractory MSS colorectal cancer and CPI-exposed non-squamous NSCLC, dose-escalation cohort
  Antitumor activity: preliminary antitumor activity
[2]; 99 response-evaluable patients, both phases, 40, 90 and 120 mg twice weekly
  Patients with confirmed PR: three
[2]; overall
  Patients with confirmed PR: 3%
[2]; overall, 26 patients
  Best response of SD: 26.3%
[2]; overall, n = 29/99, 20.57–39.29
  DCR: 29.3%
[2]; phase I, n = 21/75, 18.24–39.56
  DCR: 28%
[2]; [7]
  Median progression-free survival: 6.06 months
  Patients with best response of SD: four of seven
[2]; [8]
  Median progression-free survival: 3.78 months
  Patients with best response of SD: two of three
[2]; phase II, n = 8/24, 15.63–55.32
  DCR: 33%
[3]; CPI-naïve cervical cancer and CPI-exposed melanoma and NSCLC samples
  T-cell infiltration in tumor: significant CD8^+ and CD4^+ T-cell infiltration
[3]; biopsies from three patients with MSS colorectal cancer
  T-cell density in tumor: did not exhibit an increase in T-cell density
[3]; [9]
  Activated CD11C+HLA-DR+ myeloid dendritic cells: increase in density
  HLA class I expression on tumor cells: marked increase
  T-cell activation (CD69 on CD4+ and CD8+ T cells) in tumor: significant increase in T-cell activation
[3]; paired tumor samples, C2D8
  PD-L1 CPS: increased in most paired tumor samples
[3]; same biopsies
  Regulatory T cells in tumor: no significant changes
[4]
  Modulation of the TME: modulate the TME from an immune-suppressive to an immune-permissive status
[5]; after dose (end of infusion), intravenous, C1D1 and C1D8, phase I
  Time of maximum plasma and blood concentrations: approximately 1 hour
[5]; dose range 3 to 120 mg, C1D1 and C1D8
  Increase of Cmax, AUC0–t and AUC0–∞ with dose: approximately dose-proportional
[5]; human, intravenous, plasma
  half-life: 3.35 to 9.31 h
[5]; human, intravenous, stated as lower in blood compared with plasma, matrix of the range not stated explicitly
  clearance: 38.2 to 76 mL/min
[5]; human, intravenous, stated as lower in blood compared with plasma, matrix of the range not stated explicitly, read-out: Volume of distribution at steady state
  Vd: 13.7 to 38.8 L
[5]; human, whole blood, intravenous, blood
  half-life: 2.87 to 9.19 h
[5]; phase II, 90 mg twice weekly, C1D4, C1D8, C2D1, C2D8 vs C1D1
  Accumulation in plasma after multiple administrations: no apparent accumulation
IFNI pathway; both dosing schedules, phase I, dose-dependent
  Dose from which IFNI gene signature and plasma CXCL-10 (IP-10) were upregulated: ≥ 40 mg
IFNI pathway; both markers
  Recovery of IFNI gene signature and IP-10: returned to baseline levels before dose on C1D8
IFNI pathway; plasma
  Time to increase of IP-10 plasma concentration after end of infusion: ≤ 24 h
[6]; A20 lymphoma–bearing BALB/c mice
  Lymphopenia: transient lymphopenia
[6]; mouse model of pancreatic ductal adenocarcinoma
  B-cell depletion: transient B-cell depletion
[6]; preclinical mouse models
  Systemic toxicities: No systemic toxicities were observed
